Results reported in patent US20050032745A1, “Modified low molecular weight heparin that inhibits clot associated coagulation factors” (Hamilton Civic Hospitals Res Dev., Inc., priority 2000, published 2005).

Legend:
injured rabbit aorta = assay: rabbit arterial thrombosis prevention model (flow distal to 95% stenosis in injured aorta); type: in vivo; conditions: FIG. 11
Procedure: This example illustrates a study comparing the efficacy and safety of the MLMWH compounds of the present invention, which are denoted in the figures as V21, LMWH, heparin and hirudin in a the rabbit arterial thrombosis prevention model. […] The arterial thrombosis prevention model was modified so that both efficacy and safety could be assessed in the same animal. Efficacy was assessed by measuring flow over 90 minutes distal to a 95% stenosis in an injured rabbit aorta, and safety was assessed by measuring blood loss over 30 minutes using the rabbit ear model. The four compounds were compared at three dosage levels. Each compound was administered as a bolus and infusion for 90 minutes. The doses listed in the following figures represent the bolus and infusion/60 minutes, administered for 90 minutes. The doses for heparin are shown as units/Kg, for LMWH and V21 as mg/Kg and for hirudin as mg/Kg. V21 has similar anti-Xa activity to LMWH and about twice the anti-IIa activity of LMWH. Thus, the specific activity of LMWH is 100 anti-Xa/mg and 30 anti-IIa units/mg. The specific activity of V21 is 100 anti-Xa units/mg and 60 anti-IIa units/mg, whereas the specific activity of heparin is about 150 anti-Xa units and 150 anti-IIa units/mg. The anticoagulants were compared in the following dosages. […]

washed plasma clot = assay: procoagulant activity of washed plasma clot incubated in unanticoagulated whole blood; type: biochemical
Source text: There is mounting evidence that both fibrin-bound thrombin and platelet-bound factor Xa contribute to the intense procoagulant activity of thrombi. […] Development of these agents requires an understanding of the mechanisms by which fibrin-bound IIa and platelet-bound factor Xa are protected from inactivation by heparin, LMWH and hirudin.

For hirudin, the “response of the model to the antithrombotic effects” value (injured rabbit aorta) was “very responsive” and the “blocking of the ability of a washed plasma clot to accelerate coagulation” value (washed plasma clot) was “cannot be blocked”.
With “TAP: tick anticoagulant peptide, a direct inhibitor of factor Xa (YNRLCIKPRDWIDECDSNEGGERAYFRNGKGGCDSFWICPEDHTGADYYSSYRDCFNACI; UniProt P17726 1-60, looked up)” the “blocking of the ability of a washed plasma clot to accelerate coagulation” value (washed plasma clot) was “cannot be blocked”.
